In PubChem BioAssay AID248 (DTP/NCI, 2004) one finds T/C data, which are given here for 21 molecules.

Several values for one entry are separate records, joined by “and”; a condition that tells them apart may be missing. Identical values can stand only once. Inconclusive results and toxic doses are left out.

In this assay the test system is L1210 leukemia ip in BDF1 mice, survival T/C. As to the kind of experiment: NCI In Vivo Anticancer Drug Screen. Data for tumor model L1210 Leukemia (intraperitoneal) in B6D2F1 (BDF1) mice. The settings on record: endpoint: mean survival time, higher = longer survival. A digest of the protocol: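 Each compound was tested against a transplantable tumor grown in mice. The endpoint was survival, with treated animals benchmarked against vehicle controls as a simple ratio.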

Where [1] appears, read: dose: 100.0 mg/kg/injection, schedule: Q04DX003 (ip), vehicle: Klucel (hydroxypropylcellulose) (HPC).
[2] abbreviates: dose: 200.0 mg/kg/injection, schedule: Q04DX003 (ip), vehicle: Klucel (hydroxypropylcellulose) (HPC).
[3] abbreviates: dose: 400.0 mg/kg/injection, schedule: Q04DX003 (ip), vehicle: Klucel (hydroxypropylcellulose) (HPC).
Setting [4] is: dose: 100.0 mg/kg/injection, schedule: Q04DX002 (ip), vehicle: Klucel (hydroxypropylcellulose) (HPC).
[5] abbreviates: dose: 200.0 mg/kg/injection, schedule: Q04DX002 (ip), vehicle: Klucel (hydroxypropylcellulose) (HPC).
[6] abbreviates: dose: 50.0 mg/kg/injection, schedule: Q01DX009 (ip), vehicle: Klucel (hydroxypropylcellulose) (HPC).
Where [7] appears, read: dose: 100.0 mg/kg/injection, schedule: Q01DX009 (ip), vehicle: Klucel (hydroxypropylcellulose) (HPC).
Where [8] appears, read: dose: 200.0 mg/kg/injection, schedule: Q01DX009 (ip), vehicle: Klucel (hydroxypropylcellulose) (HPC).
Setting [9] is: dose: 200.0 mg/kg/injection, schedule: Q04DX003 (ip), vehicle: saline with Tween-80.
Setting [10] is: dose: 400.0 mg/kg/injection, schedule: Q04DX003 (ip), vehicle: saline with Tween-80.
[11] abbreviates: dose: 100.0 mg/kg/injection, schedule: Q01DX001 (ip), vehicle: saline with Tween-80.
The mark [12] stands for this setting: dose: 200.0 mg/kg/injection, schedule: Q01DX001 (ip), vehicle: saline with Tween-80.
The mark [13] stands for this setting: dose: 400.0 mg/kg/injection, schedule: Q01DX001 (ip), vehicle: saline with Tween-80.
[14] abbreviates: dose: 50.0 mg/kg/injection, schedule: Q01DX001 (ip), vehicle: saline.
Where [15] appears, read: dose: 100.0 mg/kg/injection, schedule: Q01DX001 (ip), vehicle: saline.
Setting [16] is: dose: 200.0 mg/kg/injection, schedule: Q01DX001 (ip), vehicle: saline.
Setting [17] is: dose: 100.0 mg/kg/injection, schedule: Q01DX009 (ip), vehicle: saline with Tween-80.

For the molecule `COc1ccc(NC(=O)Nc2cc([N+](=O)[O-])ccc2F)cc1`, the T/C was 89 % of control under setting [1], 89 % of control under setting [2] and 88 % of control under setting [3].

As for `CNC(=S)N/N=C(\C=N\NC(=S)NC)c1ccc(-c2ccccc2)cc1`, the T/C under setting [4] is 89 % of control; the T/C under setting [5] was 92 % of control; the T/C (dose: 400.0 mg/kg/injection, schedule: Q04DX002 (ip), vehicle: Klucel (hydroxypropylcellulose) (HPC)) is 92 % of control.

In the case of `O=Nc1ccc(O)c2ccccc12`, the T/C under setting [6] was 100 % of control, the T/C under setting [7] was 100 % of control and the T/C under setting [8] was 95 % of control.

As to `Nc1cc2c(cc1N)-c1ccccc1/C2=N\O`, the T/C (dose: 75.0 mg/kg/injection, schedule: Q01DX001 (ip), vehicle: carboxymethylcellulose (CMC)) was 102 % of control and the T/C (dose: 150.0 mg/kg/injection, schedule: Q01DX001 (ip), vehicle: carboxymethylcellulose (CMC)) was 91 % of control.

For `O=S1(=O)CCCC(c2ccccc2)=C1c1ccccc1`, the T/C by setting is: under setting [6], 102 % of control; under setting [7], 105 % of control; under setting [8], 91 % of control.

With `O=C(Cc1ccccc1)NC1=C(Cl)C(=O)c2ccccc2C1=O`, the T/C reads like this: (dose: 100.0 mg/kg/injection, schedule: Q04DX003 (ip), vehicle: saline with Tween-80) 89 % of control; under setting [9], 101 % of control; under setting [10], 88 % of control.

As to `O=C(c1ccccc1)C1CC1(C(=O)c1ccccc1)c1ccccc1` (centres undefined), the T/C under setting [11] is 103 % of control, the T/C under setting [12] is 103 % of control and the T/C under setting [13] was 88 % of control.

Consider `COC1=NS(=O)(=O)N=C(C)O1`, for which the T/C is, setting by setting: under setting [1], 91 % of control; under setting [2], 102 % of control; under setting [3], 93 % of control.

Regarding `CSc1nc(N)cc(NCc2ccccc2)n1`, the T/C was 93 % of control under setting [11], 95 % of control under setting [12] and 100 % of control under setting [13].

For the molecule `COC(=O)/C(C)=C/CC(C)C(=O)OC` (centres undefined), the T/C under setting [14] is 102 % of control, the T/C under setting [15] is 96 % of control and the T/C under setting [16] was 105 % of control.

`N#C/C(=C/c1ccc(Cl)cc1)C(=O)O`: the T/C was 115 % of control (dose: 62.5 mg/kg/injection, schedule: Q01DX009 (ip), vehicle: Klucel (hydroxypropylcellulose) (HPC)); 109 % of control under setting [4]; 86 % of control (dose: 125.0 mg/kg/injection, schedule: Q01DX009 (ip), vehicle: Klucel (hydroxypropylcellulose) (HPC)); 98 % of control under setting [5]; 86 % of control (dose: 250.0 mg/kg/injection, schedule: Q01DX009 (ip), vehicle: Klucel (hydroxypropylcellulose) (HPC)).

On to `Nc1ncnc2c1ncn2C1CC(COP(=O)(O)O)C(O)C1O` (centres undefined), for which the T/C by setting is: (dose: 37.0 mg/kg/injection, schedule: Q04DX003 (ip), vehicle: saline) 105 % of control; (dose: 75.0 mg/kg/injection, schedule: Q01DX001 (ip), vehicle: saline) 107 % of control; (dose: 75.0 mg/kg/injection, schedule: Q04DX003 (ip), vehicle: saline) 110 % of control; (dose: 150.0 mg/kg/injection, schedule: Q01DX001 (ip), vehicle: saline) 87 % of control; (dose: 150.0 mg/kg/injection, schedule: Q04DX003 (ip), vehicle: saline) 100 % of control.

Turning to `Clc1ccc(/C=N\N=C\c2ccc(Cl)c(Cl)c2)cc1Cl`, the T/C is 90 % of control (dose: 25.0 mg/kg/injection, schedule: Q01DX009 (ip), vehicle: saline with Tween-80); 90 % of control (dose: 50.0 mg/kg/injection, schedule: Q01DX009 (ip), vehicle: saline with Tween-80); 95 % of control and 90 % of control under setting [17]; 90 % of control under setting [9]; 97 % of control (dose: 400.0 mg/kg/injection, schedule: Q01DX009 (ip), vehicle: saline with Tween-80); 91 % of control under setting [10].

Regarding `O=C(NCc1cnccn1)c1ccco1`, the T/C (dose: 50.0 mg/kg/injection, schedule: Q01DX005 (ip), vehicle: saline) is 109 % of control; the T/C (dose: 100.0 mg/kg/injection, schedule: Q01DX005 (ip), vehicle: saline) was 111 % of control; the T/C (dose: 200.0 mg/kg/injection, schedule: Q01DX005 (ip), vehicle: saline) is 104 % of control.

With `O=C(COc1cc(Cl)c(Cl)cc1Cl)Nc1cccc2c1C(=O)c1ccccc1C2=O`, the T/C is 98 % of control (dose: 75.0 mg/kg/injection, schedule: Q04DX002 (ip), vehicle: Klucel (hydroxypropylcellulose) (HPC)); 103 % of control (dose: 150.0 mg/kg/injection, schedule: Q04DX002 (ip), vehicle: Klucel (hydroxypropylcellulose) (HPC)); 103 % of control (dose: 300.0 mg/kg/injection, schedule: Q04DX002 (ip), vehicle: Klucel (hydroxypropylcellulose) (HPC)).

On to `C[As](C)Sc1ncccn1`, for which the T/C (dose: 6.25 mg/kg/injection, schedule: Q01DX009 (ip), vehicle: Klucel (hydroxypropylcellulose) (HPC)) was 100 % of control; the T/C (dose: 12.5 mg/kg/injection, schedule: Q01DX009 (ip), vehicle: Klucel (hydroxypropylcellulose) (HPC)) is 103 % of control; the T/C (dose: 12.5 mg/kg/injection, schedule: Q04DX003 (ip), vehicle: Klucel (hydroxypropylcellulose) (HPC)) is 98 % of control; the T/C (dose: 25.0 mg/kg/injection, schedule: Q04DX003 (ip), vehicle: Klucel (hydroxypropylcellulose) (HPC)) is 95 % of control.

Turning to `C=C(NC(=O)C(=C)NC(=O)c1csc(C2=NC3c4csc(n4)C4NC(=O)c5csc(n5)C(C(C)(O)C(C)O)NC(=O)C5CSC(=N5)/C(=C/C)NC(=O)C(C(C)O)NC(=O)c5csc(n5)C3(CC2)NC(=O)C(C)NC(=O)C(=C)NC(=O)C(C)NC(=O)C(C(C)CC)NC2C=Cc3c(C(C)O)cc(nc3C2O)C(=O)OC4C)n1)C(N)=O` (centres undefined), the T/C reads like this: (dose: 100.0 mg/kg/injection, schedule: Q01DX001 (ip), vehicle: carboxymethylcellulose (CMC)) 110 % of control; (dose: 100.0 mg/kg/injection, schedule: Q04DX003 (ip), vehicle: saline) 113 % of control; (dose: 178.0 mg/kg/injection, schedule: Q01DX001 (ip), vehicle: saline) 117 % of control; (dose: 200.0 mg/kg/injection, schedule: Q01DX001 (ip), vehicle: carboxymethylcellulose (CMC)) 112 % of control; (dose: 400.0 mg/kg/injection, schedule: Q01DX001 (ip), vehicle: carboxymethylcellulose (CMC)) 112 % of control.

Take `CCOc1ncc(N)c(OCC)n1`: the T/C reads like this: under setting [14], 112 % of control; under setting [15], 97 % of control; under setting [16], 103 % of control; (dose: 400.0 mg/kg/injection, schedule: Q01DX001 (ip), vehicle: saline) 100 % of control.

For `Nc1cnccc1Nc1ccc(-c2ccccc2)cc1`, the T/C under setting [17] was 92 % of control.

Regarding `O=C(CCc1ccc(C(=O)Nc2ccc(C3=NCCN3)cc2)cc1)Nc1ccc(C2=NCCN2)cc1`, the T/C reads like this: (dose: 1.87 mg/kg/injection, schedule: Q01DX Z (ip), vehicle: carboxymethylcellulose (CMC)) 101 % of control; (dose: 3.75 mg/kg/injection, schedule: Q01DX Z (ip), vehicle: carboxymethylcellulose (CMC)) 103 % of control; (dose: 7.5 mg/kg/injection, schedule: Q01DX Z (ip), vehicle: carboxymethylcellulose (CMC)) 99 % of control; (dose: 15.0 mg/kg/injection, schedule: Q01DX Z (ip), vehicle: carboxymethylcellulose (CMC)) 235 % of control; (dose: 30.0 mg/kg/injection, schedule: Q01DX Z (ip), vehicle: carboxymethylcellulose (CMC)) 223 % of control and 295 % of control; (dose: 60.0 mg/kg/injection, schedule: Q01DX Z (ip), vehicle: carboxymethylcellulose (CMC)) 239 % of control and 262 % of control.

In the case of `CC1CN=C(c2ccc(O)cc2O)S1` (centres undefined), the T/C runs as follows: (dose: 100.0 mg/kg/injection, schedule: Q04DX002 (ip), vehicle: saline) 93 % of control; (dose: 200.0 mg/kg/injection, schedule: Q04DX002 (ip), vehicle: saline) 104 % of control; (dose: 400.0 mg/kg/injection, schedule: Q04DX002 (ip), vehicle: saline) 96 % of control.
